In patent US8461328B2, “Tricyclic heterocyclic compounds, compositions and methods of use thereof” (Genentech, Inc., priority 2010, dated 2013):

Assays:
Type in all cases: biochemical
JAK2 = molecular target: T1, JAK2 (Homo sapiens, UniProt O60674); assay: JAK2 inhibition (Table 4); settings: read-out: JAK2 Ki
T1 construct: made in house; host or cells: SF9 insect cells (baculovirus)

JAK3 = molecular target: T2, JAK3 (Homo sapiens, UniProt P52333); assay: JAK3 inhibition (Table 4); settings: read-out: JAK3 Ki
T2 construct: made in house; host or cells: SF9 insect cells (baculovirus)

TYK2 = molecular target: T3, TYK2 (Homo sapiens, UniProt P29597); assay: TYK2 inhibition (Table 4)
T3 construct: made in house; host or cells: SF9 insect cells (baculovirus)
T3 sequence (P29597 873-1187): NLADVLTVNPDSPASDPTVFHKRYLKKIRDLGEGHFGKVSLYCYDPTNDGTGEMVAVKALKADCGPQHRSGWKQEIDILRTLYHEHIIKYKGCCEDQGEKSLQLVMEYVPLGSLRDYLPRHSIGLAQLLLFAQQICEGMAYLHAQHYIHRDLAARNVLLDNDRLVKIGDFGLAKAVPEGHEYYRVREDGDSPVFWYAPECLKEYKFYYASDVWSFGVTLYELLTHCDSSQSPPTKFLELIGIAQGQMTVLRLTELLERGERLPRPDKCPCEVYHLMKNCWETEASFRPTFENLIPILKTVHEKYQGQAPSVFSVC

JAK1 = molecular target: T4, JAK1 (Homo sapiens, UniProt P23458); assay: JAK1 inhibition (Table 4); settings: read-out: JAK1 Ki
T4 construct: made in house; host or cells: SF9 insect cells (baculovirus)
T4 sequence (P23458 852-1154): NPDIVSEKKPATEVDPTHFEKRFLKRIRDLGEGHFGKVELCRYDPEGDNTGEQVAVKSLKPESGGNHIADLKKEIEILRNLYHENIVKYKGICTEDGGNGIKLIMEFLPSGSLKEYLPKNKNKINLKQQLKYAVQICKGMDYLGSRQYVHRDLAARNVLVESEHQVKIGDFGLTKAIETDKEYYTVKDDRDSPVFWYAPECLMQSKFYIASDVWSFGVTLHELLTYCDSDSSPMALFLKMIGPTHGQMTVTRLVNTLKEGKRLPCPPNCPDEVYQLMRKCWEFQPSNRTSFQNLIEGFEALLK

T1 sequence (O60674 812-1132): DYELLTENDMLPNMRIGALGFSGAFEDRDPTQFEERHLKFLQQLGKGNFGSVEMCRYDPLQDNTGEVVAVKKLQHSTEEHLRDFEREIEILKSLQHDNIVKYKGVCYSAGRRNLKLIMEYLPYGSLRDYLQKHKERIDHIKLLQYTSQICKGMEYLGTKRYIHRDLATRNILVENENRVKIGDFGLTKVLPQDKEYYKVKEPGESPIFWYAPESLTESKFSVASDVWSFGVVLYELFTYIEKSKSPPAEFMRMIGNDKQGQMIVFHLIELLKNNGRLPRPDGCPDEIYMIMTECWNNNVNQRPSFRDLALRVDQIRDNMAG
T2 sequence (P52333 783-1124): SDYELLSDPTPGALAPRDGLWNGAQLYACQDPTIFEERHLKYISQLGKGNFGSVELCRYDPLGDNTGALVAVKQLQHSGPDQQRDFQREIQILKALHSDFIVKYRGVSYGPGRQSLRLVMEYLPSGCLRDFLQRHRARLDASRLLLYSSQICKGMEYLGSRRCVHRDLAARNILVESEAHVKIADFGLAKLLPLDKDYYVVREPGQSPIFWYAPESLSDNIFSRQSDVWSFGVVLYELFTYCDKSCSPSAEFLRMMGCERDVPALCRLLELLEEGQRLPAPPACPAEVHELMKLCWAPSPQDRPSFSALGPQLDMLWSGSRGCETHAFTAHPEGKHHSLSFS

Compound | Ki (JAK2) | Ki (JAK3) | Ki (TYK2) | Ki (JAK1)
Cc1cc(Cc2nc3cnc4[nH]ccc4c3n2C2CCOCC2)on1 [Example 472, 2-(3-Methyl-isoxazol-5-ylmethyl)-1-(tetrahydro-pyran-4-yl)-1,6-dihydro-1,3,5,6-tetraaza-as-indacene] | 694 nM | 405 nM | 389 nM | 57.3 nM
O=C1CN(Cc2nc3cnc4[nH]ccc4c3n2C2CCOCC2)CCN1 [Example 473, 4-[1-(Tetrahydro-pyran-4-yl)-1,6-dihydro-1,3,5,6-tetraaza-as-indacen-2-ylmethyl]-piperazin-2-one] | 1700 nM | 2010 nM | 1700 nM | 447 nM
O=C(O)[C@H]1C[C@@H](n2cnc3cnc4[nH]ccc4c32)C1 [Example 484, 3-(6H-1,3,5,6-Tetraaza-as-indacen-1-yl)-cyclobutanecarboxylic acid] | 181 nM | 323 nM | 1290 nM | 441 nM
CS(=O)(=O)Cc1nc2cnc3[nH]ccc3c2n1C1CCN(CCC#N)CC1 [Example 491, 3-[4-(2-Methanesulfonylmethyl-6H-1,3,5,6-tetraaza-as-indacen-1-yl)-piperidin-1-yl]-propionitrile] | 34 nM | 23.6 nM | 95.8 nM | 9.7 nM
CC(=O)NCc1nc2cnc3[nH]ccc3c2n1C1CCN(CCC#N)CC1 [Example 492, N-{1-[1-(2-Cyano-ethyl)-piperidin-4-yl]-1,6-dihydro-1,3,5,6-tetraaza-as-indacen-2-ylmethyl}-acetamide] | 86.5 nM | 200 nM | 210 nM | 16 nM

More lines, now with the values ahead:

Ki (JAK2) | Ki (JAK3) | Ki (TYK2) | Ki (JAK1) | Compound
36.2 nM | 80.2 nM | 121 nM | 11.3 nM | CCOC(=O)NCc1nc2cnc3[nH]ccc3c2n1C1CCN(CCC#N)CC1 [Example 493, {1-[1-(2-Cyano-ethyl)-piperidin-4-yl]-1,6-dihydro-1,3,5,6-tetraaza-as-indacen-2-ylmethyl}-carbamic acid ethyl ester]
23.5 nM | 18.6 nM | 61.2 nM | 4.73 nM | N#CCCN1CCC(n2c(CNC(=O)c3cccnc3)nc3cnc4[nH]ccc4c32)CC1 [Example 494, N-{1-[1-(2-Cyano-ethyl)-piperidin-4-yl]-1,6-dihydro-1,3,5,6-tetraaza-as-indacen-2-ylmethyl}-nicotinamide]
106 nM | 97.7 nM | 415 nM | 16.2 nM | CC(C)S(=O)(=O)NCc1nc2cnc3[nH]ccc3c2n1C1CCN(CCC#N)CC1 [Example 495, Propane-2-sulfonic acid {1-[1-(2-cyano-ethyl)-piperidin-4-yl]-1,6-dihydro-1,3,5,6-tetraaza-as-indacen-2-ylmethyl}-amide]
8.05 nM | 13.1 nM | 55.7 nM | 2.75 nM | N#CCCN1CCC(n2c(CNC(=O)c3ccccn3)nc3cnc4[nH]ccc4c32)CC1 [Example 496, Pyridine-2-carboxylic acid {1-[1-(2-cyano-ethyl)-piperidin-4-yl]-1,6-dihydro-1,3,5,6-tetraaza-as-indacen-2-ylmethyl}-amide]
41.5 nM | 76.3 nM | 169 nM | 13 nM | N#CCCN1CCC(n2c(CNS(=O)(=O)C3CC3)nc3cnc4[nH]ccc4c32)CC1 [Example 497, Cyclopropanesulfonic acid {1-[1-(2-cyano-ethyl)-piperidin-4-yl]-1,6-dihydro-1,3,5,6-tetraaza-as-indacen-2-ylmethyl}-amide]
67.7 nM | 60 nM | 307 nM | 21.9 nM | CC(C)C(=O)NCc1nc2cnc3[nH]ccc3c2n1C1CCN(CCC#N)CC1 [Example 498, N-{1-[1-(2-Cyano-ethyl)-piperidin-4-yl]-1,6-dihydro-1,3,5,6-tetraaza-as-indacen-2-ylmethyl}-isobutyramide]
